The results in this text go back to publication PMC8315078, “Molecular imaging of fibroblast activation protein after myocardial infarction using the novel radiotracer [^68Ga]MHLL1” (Theranostics, 2021).

In assay [1] the target is T1, fibroblast activation protein (human FAP, hFAP) (Homo sapiens, UniProt Q12884).
T1 sequence (Q12884 1-760): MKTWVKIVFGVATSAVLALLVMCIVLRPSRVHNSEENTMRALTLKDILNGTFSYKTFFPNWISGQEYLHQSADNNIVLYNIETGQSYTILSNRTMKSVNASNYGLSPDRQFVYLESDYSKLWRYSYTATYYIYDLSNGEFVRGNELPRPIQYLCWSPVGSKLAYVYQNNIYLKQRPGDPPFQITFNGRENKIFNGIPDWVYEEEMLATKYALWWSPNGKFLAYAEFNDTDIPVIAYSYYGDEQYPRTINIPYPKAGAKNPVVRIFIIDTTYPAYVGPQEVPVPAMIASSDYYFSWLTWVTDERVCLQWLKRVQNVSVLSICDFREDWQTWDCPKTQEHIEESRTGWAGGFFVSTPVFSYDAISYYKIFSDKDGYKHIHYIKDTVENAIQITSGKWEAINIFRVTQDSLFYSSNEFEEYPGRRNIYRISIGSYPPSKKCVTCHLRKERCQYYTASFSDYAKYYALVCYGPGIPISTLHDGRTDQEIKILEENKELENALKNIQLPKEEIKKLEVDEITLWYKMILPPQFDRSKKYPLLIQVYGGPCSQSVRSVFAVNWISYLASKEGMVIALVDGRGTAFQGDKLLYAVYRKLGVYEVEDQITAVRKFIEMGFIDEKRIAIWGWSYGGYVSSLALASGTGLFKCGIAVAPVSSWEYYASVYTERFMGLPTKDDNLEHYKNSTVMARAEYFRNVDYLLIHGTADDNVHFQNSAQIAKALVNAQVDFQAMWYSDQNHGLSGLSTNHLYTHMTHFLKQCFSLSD
Nature of the assay: displacement of […]MHLL1 by cold compound in hFAP-transfected HT1080 cells (internalized activity); wild-type cells negative. It counts as cell-based.

The target in assay [2] is fibroblast activation protein (murine FAP, mFAP) (Mus musculus, UniProt P97321).
fibroblast activation protein (murine FAP, mFAP), sequence (P97321 whole entry): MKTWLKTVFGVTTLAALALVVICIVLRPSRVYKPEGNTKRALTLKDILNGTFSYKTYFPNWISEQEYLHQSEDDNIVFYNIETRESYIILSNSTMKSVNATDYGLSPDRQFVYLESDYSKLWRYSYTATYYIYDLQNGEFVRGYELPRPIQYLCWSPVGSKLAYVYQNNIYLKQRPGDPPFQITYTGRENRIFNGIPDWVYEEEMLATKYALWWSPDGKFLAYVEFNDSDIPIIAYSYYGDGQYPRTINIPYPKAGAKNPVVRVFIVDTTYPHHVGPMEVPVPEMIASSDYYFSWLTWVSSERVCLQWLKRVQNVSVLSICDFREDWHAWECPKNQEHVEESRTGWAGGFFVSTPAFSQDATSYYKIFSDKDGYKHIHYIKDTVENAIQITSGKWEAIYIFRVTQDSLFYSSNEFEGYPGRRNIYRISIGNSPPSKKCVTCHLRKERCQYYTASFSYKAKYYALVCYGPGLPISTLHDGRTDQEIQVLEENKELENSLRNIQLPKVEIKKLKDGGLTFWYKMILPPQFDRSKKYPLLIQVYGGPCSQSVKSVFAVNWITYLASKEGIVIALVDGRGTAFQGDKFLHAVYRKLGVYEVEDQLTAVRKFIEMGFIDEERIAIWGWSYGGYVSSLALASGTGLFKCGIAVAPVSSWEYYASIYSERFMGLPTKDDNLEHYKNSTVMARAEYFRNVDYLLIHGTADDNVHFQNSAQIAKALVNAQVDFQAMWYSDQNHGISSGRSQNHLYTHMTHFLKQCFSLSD

Consider `N#C[C@@H]1CCCN1C(=O)CNC(=S)Nc1ccc(CNC(=O)CCC2C(=O)[O][Ga]3[O]C(=O)CN4CCN(CCN2CC4)CC(=O)[O]3)cc1` (stereo partly drawn) [[^natGa]MHLL1, [^68Ga]Ga-2,2'-(7-(1-carboxy-4-((4-(3-(2-((S)-2-cyano-pyrrolidin-1-yl)-2-oxoethyl)thioureido)benzyl)amino)-4-oxobutyl)-1,4,7-triazonane-1,4-diyl)diacetic acid], for which the 50% inhibitory concentration (IC50) in assay [1] stood at 212 nM; in assay [2] it was 142 nM.
